Measurements reported in paper PMC4015405, “Specificity of the Receptor for the Major Sex Pheromone Component in Heliothis virescens” (Journal of Insect Science, 2013).

Target: T1, Or67d (Or67d^+[1]) (Drosophila melanogaster, UniProt Q9VT92)
T1 construct: native full-length receptor in trichoid T1 sensilla of living flies; with Odorant receptor coreceptor
T1 sequence (Q9VT92 1-391): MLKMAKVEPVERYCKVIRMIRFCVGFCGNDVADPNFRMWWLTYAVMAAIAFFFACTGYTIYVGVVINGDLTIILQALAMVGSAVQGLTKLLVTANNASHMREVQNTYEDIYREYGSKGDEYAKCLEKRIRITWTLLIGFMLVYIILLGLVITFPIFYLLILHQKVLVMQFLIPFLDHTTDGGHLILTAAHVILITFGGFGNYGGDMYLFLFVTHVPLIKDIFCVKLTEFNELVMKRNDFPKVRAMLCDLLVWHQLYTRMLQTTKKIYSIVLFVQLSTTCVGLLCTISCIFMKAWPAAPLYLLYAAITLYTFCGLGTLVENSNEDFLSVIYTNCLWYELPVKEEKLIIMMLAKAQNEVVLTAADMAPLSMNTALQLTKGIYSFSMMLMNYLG
T1 sequence (Q9VNB5 1-486 partner): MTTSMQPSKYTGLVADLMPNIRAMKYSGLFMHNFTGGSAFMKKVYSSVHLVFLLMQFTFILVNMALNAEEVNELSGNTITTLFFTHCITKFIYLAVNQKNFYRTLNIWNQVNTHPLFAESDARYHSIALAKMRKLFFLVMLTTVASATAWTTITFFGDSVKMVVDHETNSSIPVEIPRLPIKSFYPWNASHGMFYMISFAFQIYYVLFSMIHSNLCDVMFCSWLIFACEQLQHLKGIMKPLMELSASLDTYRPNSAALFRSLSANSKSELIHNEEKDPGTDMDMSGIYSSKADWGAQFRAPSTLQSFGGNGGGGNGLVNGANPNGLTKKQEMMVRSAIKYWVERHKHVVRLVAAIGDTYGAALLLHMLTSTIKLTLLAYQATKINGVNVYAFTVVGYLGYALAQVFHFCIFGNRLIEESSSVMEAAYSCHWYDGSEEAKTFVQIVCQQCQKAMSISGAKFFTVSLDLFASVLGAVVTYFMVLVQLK
Test: single sensillum recording, Drosophila T1 trichoid sensilla
Format: cell-based
Conditions: 10 μg source dose on filter paper; agonist; n = 7

CCCC/C=C\CCCCCCCCCCOC(C)=O [Z11-16:OAc, (Z)-11-hexadecenyl acetate]
spikes/sec: 87 ± 15.87 spikes/sec
